Source: US20050096370A1, “Method for inhibiting tumor angiogenesis and tumor growth” (Bizbiotech Co., Ltd., priority 2003, published 2005)

Key:
[1] = system: HIF-1-regulated genes (VEGF, aldolase A, and enolase 1); experiment: semi-quantitative RT-PCR of HIF-1α and HIF-1-regulated gene mRNA in Hep3B cells; type: cell-based, human; conditions: 16 hours
Description: FIG. 2 is an autoradiograph showing mRNA levels of VEGF, aldolase A, enolase 1, HIF-1α, and β-actin.
Immunoblotting was used to detect HIF-1 protein in cultured cells, as described (Chun et al., Biochem Pharmacol 2001 61:947-954). Cells were centrifuged at 3000 rpm for 5 minutes at VC and then washed twice with ice-cold phosphate buffered saline (PBS). Cells were then resuspended in ten packed cell volumes of alysis buffer consisting of 10 mM Tris, pH 7.4, 130 mM NaCl, 2 mM EDTA, 1% Nonidet P-40, 0.5 mM dithiothreitol, and 0.5 mM phenylmethylsulfonyl fluoride. […] To quantify mRNAs for HIF-1α and HIF-1-regulated genes, we performed a highly sensitive, semi-quantitative reverse transcription-polymerase chain reaction (RT PCR), as described previously (Chun et al., J Cell Sci 2001 114:4051-4061). […] P-actin mRNA was measured as a PCR control. […] To assess whether the VEGF mRNA levels affected levels of VEGF protein secreted into the medium, we measured VEGF protein levels in Hep3B cell-conditioned medium. […] VEGF levels in the conditioned media were quantified by using the Quantikine human VEGF Immunoassay kit (R&D Systems, Minneapolis, Minn.) according to the manufacturer's recommended protocol. The VEGF concentrations were quantified by comparison with a series of VEGF standard samples included in the assay kit. […]

[2] = system: SK-N-MC neuroblastoma; experiment: SK-N-MC neuroblastoma xenograft tumor growth in nude mice; type: in vivo; conditions: YC-1 30 μg/g daily i.p. 2 weeks, P<0.01
Description: Male nude mice were injected subcutaneously in the flank with 5×10^6 viable Hep3B hepatoma (A), NCI-H87 gastric carcinoma (B), SiHa cervical carcinoma (C), SK-N-MC neuroblastoma (E), or Caki-I renal carcinoma (F) cells. […] Tumor size was measured over time. […] Differences between tumor sizes in the vehicle- and YC-1-treated groups for mice with Hep3B tumors were compared using ANOVA and Duncan's multiple range tests. * denotes P<0.001 relative to the control. Differences between tumor sizes in the vehicle and YC-1-treated groups for mice with other tumors (B-E) were compared using a Mann-Whitney U test. Each number beneath the error bar represents the P value of the difference relative to the control.
Male nude (BALB/cAnNC˜-nu/nu) mice were purchased from Charles River Japan Inc. (Shin-Yokohama, JAPAN). The animals were housed in a specific pathogen-free room under controlled temperature and humidity. All animal procedures were performed according to the established procedures of the Seoul National University Laboratory Animal Maintenance Manual. Eighty mice aged 7-8 weeks were injected with tumor cells for the xenograft experiments. […]
Tumors were measured every 2 or 3 days with calipers in two dimensions and the tumor volumes were calculated using the formula: Volume=axb2/2, where a is the width at the widest point of the tumor and h is the width perpendicular to a. […]

## OCc1ccc(-c2nn(Cc3ccccc3)c3ccccc23)o1 [YC-1, 3-(5′-hydroxymethyl-2′-furyl)-1-benzylindazole]
[1]
  HIF-1α mRNA level: relatively unchanged
[1]; hypoxic
  expression of HIF-1-regulated genes (VEGF, aldolase A, and enolase 1) mRNA: dose dependently decreased
[2]
  tumor size versus vehicle: statistically significantly smaller
